Laboratory results published in US10307401B2, “Compositions and methods for treatment of prostate cancer” (priority 2016, dated 2019).

Key:
LNCaP/AR cells = assay: Cytotoxicity / proliferation in LNCaP/AR cells (WST-1, CellTiter-Glo); type: cell-based; conditions: 72 hours, compared with bicalutamide
Excerpt: (§1) The LREX′ and LNCaP/AR cell lines were gifts from Charles Sawyers (Memorial Sloan Kettering) and received in 2014 and 2007, respectively. The VCaP cell line was a gift from Kenneth Pienta (University of Michigan Medical School) and received in 2012. Cells were maintained as previously described (5, 10-13), and were used within 10 passages from thawing. Cells were validated to parental cell lines by STR profile at IDEXXX Bioresearch following experimentation and confirmed to be Mycoplasma free. WST-1 assay (Roche) was used to measure cytotoxicity. The CellTiter-Glo assay was also used in some experiments and is described when used. Long-term toxicity in VCaP cells was assayed by cell counting.

LREX′ cells [1] = assay: Cytotoxicity / proliferation in LREX′ cells (WST-1); type: cell-based; conditions: with or without 1 nM DHT, 100 nM dex, or both
Excerpt: as §1

VCaP cells = assay: Cytotoxicity and long-term viability (cell counting) in VCaP cells; type: cell-based
Excerpt: as §1

[2] = test system: KLK3 mRNA in LNCaP/AR cells; assay: Gene expression analysis (qRT-PCR) in LNCaP/AR cells; type: cell-based; conditions: 10 μM; for agonist activity (KLK3 mRNA): androgen-depleted conditions
Description: (§2) LNCaP/AR and LREX′ cells were cultured for 72 hours after plating in phenol-red free RPMI 1640 (10% CT-FBS) in six well plates at 40,000 and 50,000 cells/mL, respectively. LNCaP/AR cells were treated with 10 μM ARE-1, bicalutamide (bic), or enzalutamide (enz, Aurum Pharmatech) for an additional 48, 2, and 2 hours, respectively, prior to treatment with 1 nM DHT or ethanol for 16 hours. LREX′ cells were treated with 10 μM ARE-1 for 16 hours prior to induction with 1 nM DHT or 100 nM dexamethasone (dex) for 8 hours. RNA extraction (RNEasy columns, Qiagen), cDNA generation (Transcriptor First Strand cDNA kit, Roche), and qRT-PCR (SYBR Green Master Mix, Applied Biosystems, ABI7300 instrument) were as described (10-12). Expression was normalized to β-glucuronidase.

[3] = test system: KLK3 and HOMER2 expression in LREX′ cells; assay: Gene expression analysis (qRT-PCR) of genes co-regulated by AR and GR in LREX′ cells; type: cell-based
Description: as §2

LREX′ cells [4] = assay: RNAseq GSEA (Hallmark pathways) in LREX′ cells; type: cell-based, human
Description: (§3) LREX′ cells were plated at 50,000 cells/mL in 10 cm^2 dishes, treated with or without 10 μM of ARE-1 in fresh media, incubated 16 hours, and induced with 1 nM DHT for 8 hours. Tumor samples were homogenized mechanically. Total RNA was triazol extracted, sequenced (Illumina HiSeq2000), mapped against the human genome (hg19) with Tophat2 using Ensembl GRCh37 gene annotations. Human and mouse reads from tumor samples were parsed with BBSplit and unique reads were mapped. Htseq-count was used for exon alignment and DESeq2 for differential expression. Gene set enrichment analysis (GSEA) was performed on genes with padj<0.05 and fold change≥1.6 for cell samples and padj<0.05 for tumor samples.

LNCaP cells = assay: RNAseq GSEA (Hallmark pathways) in LNCaP cells; type: cell-based, human; conditions: LNCaP ARE-1/NT
[5] = test system: nascent RNA in LREX′ cells; assay: Nascent RNA measurement (5-EU incorporation) in LREX′ cells; type: cell-based
Description: LREX′ cells were plated at 100,000 cells/mL in 96 well plates in RPMI 1640 (20% FBS and 1 μM enz), adhered for 24 hours, dosed with ARE-1, incubated for 48 hours. The Click-iT® RNA Alexa Fluor® 488 HCS kit was used for dye conjugation and incorporation of 5-ethynyl uridine (5-EU) was measured on a Flexstation 3 plate reader.
LREX′ cells were plated at 100,000 cells/mL in 175 cm^2 flasks, adhered 24 hours, incubated with 10 μM ARE-1 24, 48, and 72 hours, then with 300 μM 5-EU in fresh media. Cells were detached by Accumax or Accutase, and Alexa Fluor® 488 azide dye was conjugated. Cells were passed through 35 μm mesh prior to flow, sorted on a FACSCalibur instrument (Beckman-Dickinson), analyzed using FlowJo.

VCaP xenografts [6] = assay: VCaP xenografts in intact male SCID mice; type: in vivo
Description: (§4) Animal experiments were performed at Caltech under IACUC approval. VCaP and LREX′ cells were engrafted as 1:1 mixtures of 3×10^6 cells in Matrigel (BD Biosciences) into flanks of intact and castrated male SCID mice (Charles River), respectively. LREX′ engrafted mice received 10 mg/kg enz (oral gavage) daily. Once tumors were 100 mm^3 (0.5*l*w*w), ARE-1 was administered subcutaneously to opposing flanks in 20% DMSO:saline. For circulation studies, four C57BL6/J animals were injected subcutaneously with ARE-1 at 30 mg/kg and blood collected retroorbitally. Plasma concentrations of ARE-1 were analyzed by HPLC, area under the curve (AUC) approximated by the linear trapezoidal method, as described (12).

LREX′ tumors = assay: RNAseq GSEA of LREX′ tumor expression profiles; type: in vivo, mice; conditions: gene ontology
Description: as §3, §4

[7] = Plasma concentration of ARE-1 in LREX′ tumor bearing SCID mice; type: in vivo; conditions: 2.5 mg/kg, terminal blood samples, linear trapezoidal method
Description: as §4
(§5) Cell culture experiments represent ≥3 independent biological replicates. Sequencing analyses were duplicates for cell culture and quadruplicates for tumor samples. For xenografts, animals were randomly assigned to groups. For circulation experiments, concentrations of ARE-1 were duplicate measurements. Measurements in cell culture, animal, and immunohistochemistry experiments were assessed by Student's t-test.

[8] = Circulation study of ARE-1 in C57BL6/J mice; type: in vivo
Description: as §4, §5

[9] = test system: hormone sensitive LNCaP xenografts; conditions: previously shown, cited from earlier work
VCaP xenografts [10] = conditions: 10 mg/kg enzalutamide treatment; cited from earlier work

## CC(=O)N[C@H](CCNC(=O)c1cc(NC(=O)c2cc(NC(=O)c3cc(NC(=O)c4nccn4C)cn3C)cn2C)cn1C)C(=O)Nc1cn(C)c(C(=O)Nc2cc(C(=O)Nc3cc(C(=O)Nc4cc(C(=O)NCCCN(C)CCCNC(=O)c5cccc(C(=O)O)c5)n(C)c4)n(C)c3)n(C)c2)n1 [ARE-1]
LNCaP/AR cells
  proliferation of LNCaP/AR cells: reduced proliferation of LNCaP/AR cells more than bicalutamide
LREX′ cells [1]
  proliferation of LREX′ cells: reduced proliferation
VCaP cells; long-term incubation, cell counting, compared with enzalutamide
  long-term cell viability in VCaP cells: more potent than enzalutamide and insensitive to GR activation
VCaP cells; with or without 1 nM DHT, 100 nM dex, or both
  proliferation of VCaP cells: reduced proliferation
[2]
  agonist activity (KLK3 mRNA): no agonist activity
[2]; charcoal stripped media
  baseline expression of KLK3: reduced baseline expression of KLK3
[3]; 100 nM dex, ARE-1 compared with enzalutamide
  reduction of dex induced transcription: the opposite was observed with dex induction
[3]; 10 μM ARE-1
  KLK3 and HOMER2 expression: represses KLK3 and HOMER2 expression
LREX′ cells [4]; LREX′ DHT + ARE-1/DHT
  NES HALLMARK APICAL JUNCTION: −2.198
  NES HALLMARK DNA REPAIR: 2.055
  NES HALLMARK INTERFERON GAMMA RESPONSE: 2.028
  NES HALLMARK MITOTIC SPINDLE: −2.302
  NES HALLMARK MYC TARGETS V1: 2.006
  NES HALLMARK OXIDATIVE PHOSPHORYLATION: 2.738
  NES HALLMARK PROTEIN SECRETION: −2.402
  NES HALLMARK UV RESPONSE UP: 2.173
LNCaP cells
  NES HALLMARK APOPTOSIS: 2.323
  NES HALLMARK INTERFERON GAMMA RESPONSE: 3.06
  NES HALLMARK P53 PATHWAY: 3.749
  NES HALLMARK TNFA SIGNALING VIA NFKB: 3.248
[5]
  nascent RNA (5-EU incorporation): reduced nascent RNA in LREX′ cells
VCaP xenografts [6]; VCaP tumor bearing animals treated with ARE-1
  toxicity (animal weights): without significant toxicity
VCaP xenografts [6]; VCaP xenografts, 5 mg/kg ARE-1 subcutaneously three times per week
  reduction of tumor growth compared to vehicle: 70%
LREX′ tumors
  Nes ADENYL NUCLEOTIDE BINDING: −4.22
  Nes CELL PROJECTION ORGANIZATION: −3.813
  Nes CELLULAR AMIDE METABOLIC PROCESS: 4.725
  Nes CHROMATIN BINDING: −3.786
  Nes DOUBLE STRANDED DNA BINDING: −4.074
  Nes MACROMOLECULAR COMPLEX BINDING: −3.726
  Nes MITOCHONDRIAL ENVELOPE: 5.17
  Nes MITOCHONDRIAL PART: 5.946
  Nes MITOCHONDRION: 6.585
  Nes MITOCHONDRION ORGANIZATION: 4.686
  Nes NUCLEIC ACID BINDING TRANSCRIPTION FACTOR ACTIVITY: −5.598
  Nes ORGANELLE INNER MEMBRANE: 4.922
  Nes ORGANONITROGEN COMPOUND BIOSYNTHETIC PROCESS: 4.815
  Nes ORGANONITROGEN COMPOUND METABOLIC PROCESS: 5.958
  Nes REGULATION OF TRANSCRIPTION FROM RNA POLYMERASE II PROMOTER: −4.438
  Nes REGULATORY REGION NUCLEIC ACID BINDING: −4.775
  Nes RIBOSOME: 4.779
  Nes SEQUENCE SPECIFIC DNA BINDING: −4.99
  Nes STRUCTURAL CONSTITUENT OF RIBOSOME: 4.741
  Nes ZINC ION BINDING: −3.923
[7]
  AUC (plasma): 25.9 µg·h/mL
[8]; 30 mg/kg subcutaneously, C57BL6/J mice, linear trapezoidal method
  AUC (plasma): 189.9 µg·h/mL
[8]; 30 mg/kg, mice
  time to recovery from weight loss: ≤ 5 days
  visible signs of distress: without visible signs of distress
  weight loss: 6%
[9]; LNCaP xenografts
  host toxicity: minimal host toxicity
[9]
  efficacy against LNCaP xenografts: effective against hormone sensitive LNCaP xenografts

## C[C@]12CCC(=O)C[C@@H]1CC[C@@H]1[C@@H]2CC[C@]2(C)[C@@H](O)CC[C@@H]12 [DHT, dihydrotestosterone, reference compound]
LREX′ cells [4]; LREX′ DHT/NT
  NES HALLMARK ANDROGEN RESPONSE: 5.031
  NES HALLMARK MYC TARGETS V1: −1.861
  NES HALLMARK MYC TARGETS V2: −1.81
  NES HALLMARK OXIDATIVE PHOSPHORYLATION: −2.126
  NES HALLMARK PROTEIN SECRETION: 2.849
  NES HALLMARK TNFA SIGNALING VIA NFKB: 2.751
  NES HALLMARK UV RESPONSE DOWN: 2.496

## CNC(=O)c1ccc(N2C(=S)N(c3ccc(C#N)c(C(F)(F)F)c3)C(=O)C2(C)C)cc1F [enzalutamide, reference compound]
[2]
  agonist activity (KLK3 mRNA): no agonist activity
[3]; 1 nM DHT, enzalutamide compared with ARE-1
  reduction of DHT induced transcription: more potent than ARE-1 in reducing DHT induced transcription
VCaP xenografts [10]
  response of VCaP xenografts: modest response
